# “And” between values parts separate entries of the source, which are not always exact repeats. Equal values may be shown once. Read-outs that look alike come from different tables or passages of the source.
# Tests used:
# [1] = system: rat isolated and perfused pancreas; test: Pancreatic flow rate (vascular resistance) in isolated perfused rat pancreas; conditions: for change in pancreatic flow rate: baseline 2.5 mL/min at time 45 min = 100%
# Protocol: (§1) The effects of the compounds on insulin secretion and vascular resistance in the rat isolated and perfused pancreas were evaluated in the presence of a slightly stimulating glucose concentration (8.3 mmol/L).
# (§2) Experiments were performed in vitro in isolated perfused pancreas from male Wistar albino rats fed ad libitum and weighing 300-350 g. The pancreas was completely isolated according to a technique previously described (Loubatières et al., Diabetologia, 1969, 5, 1-10) and perfused through its own arterial system with a Krebs-Ringer bicarbonate buffer containing 8.3 mmol/L glucose and 2 g/L bovine serum albumin. A mixture of O2 (95%) and CO2 (5%) was bubbled through this medium at atmospheric pressure. The pH of the solution was 7.35. The preparation was maintained at 37.5° C. Each organ was perfused at a constant pressure (40-50 cm water) selected so as to produce a flow rate of 2.5 ml/min at the start of the experiment; in these conditions, any change in the flow rate reflects a change in vascular resistance (Hillaire-Buys et al., Eur. J. Pharmacol., 1991, 199, 309-314). A 30 min adaptation period was allowed before the first sample was taken for insulin assay. A sample was taken 15 min later, at time 45 min. Then, an infusion of ATP analogues was performed during 30 min. The pancreatic flow rate was recorded and insulin was measured in the effluent fractions.
# (§3) Results are expressed as means±standard error of the mean (SEM). For the kinetics of insulin secretion and vascular flow rate, the results are expressed as changes in relation to the value at time 45 min taken as 100%. For the determination of the concentration-response relationship, the mean insulin output rate was calculated as follows: the area under the curve for the drug infusion period divided by the number of minutes (AUC/30).
# [2] = system: rat isolated and perfused pancreas; test: Insulin secretion from isolated perfused rat pancreas (8.3 mmol/L glucose)
# Protocol: as §1, §2
# Insulin was assayed by the radioimmunological method of Herbert et al. (J. Clin. Endocrinol. Metab., 1965, 25, 1375-1384) using a purified rat insulin as standard (Linco Research, St. Charles, Mo., USA) and anti-insulin serum (ICN Biochemicals, Miles, Puteaux, France). The assay sensitivity was 0.1 ng/ml. Insulin output from perfused pancreas is expressed as ng/min and was determined by multiplying the hormone concentration in the effluent fraction by the flow rate.
# as §3
# dog = conditions: cited from earlier work
# [3] = system: Normal (non diabetic) Wistar rats; test: Effect on glycemia in vivo, glucose tolerance test; design: species or system rat; conditions: in percent of baseline values, single oral dose 0.2 mg/kg, glucose 2 g/kg i.p., 0-60 min, individual animals 1-4
# Protocol: Normal (non diabetic) Wistar rats were treated with a single oral dose of VK 38A (0.2 mg/kg) or placebo (vehicle) administered just before a glucose tolerance test, in a cross-over experimental design with a 7-day wash-out period. Glucose (2 g/kg) was administered by intraperitoneal injection. Blood samples were taken before and 10, 20, 30, 60 minutes after glucose load to measure glycemia. The area under the curve of plasma glucose concentrations (in percent of baseline values) was calculated. Results in four animals are given in Table 2 (baseline glucose concentrations were 1.26±0.02 and 1.26±0.04 g/L in control and treated animals, respectively).
# rat isolated pancreas = test: Glucose-dependence of the insulin response in the isolated rat pancreas; conditions: 20 nmol/L during 20 minutes, mean±sem
# Protocol: The rat isolated pancreas is perfused in vitro with a physiological medium containing different concentrations of glucose. VK 38A is added during 20 minutes at 20 nmol/L. Insulin response is determined by the area under the concentration-time curve during VK 38A administration and is expressed as mean±sem.
# [4] = system: isolated and perfused rat pancreas; conditions: cited from earlier work
# fed rats = conditions: cited from earlier work
# [5] = injected directly to the pancreatico-duodenal artery
# [6] = conscious dogs, oral administration
structure (smiles),measurement,setting,value
"BP(=O)(OC[C@H]1O[C@@H](n2cnc3c(N)ncnc32)[C@H](O)[C@@H]1O)OP(=O)(O)OP(=O)(O)O (stereo partly shown) [VK 39A, adenosine-5′-O-(1-boranotriphosphate)]",change in pancreatic flow rate,[1]; 0.5 μmol/L,+7±3%
same,change in pancreatic flow rate,[1]; 5.0 μmol/L,+10±3%
same,insulin response compared with VK 38A,[2],clearly less potent than that of VK 38 A
"BP(=O)(OC[C@H]1O[C@@H](n2cnc3c(N)nc(Cl)nc32)[C@H](O)[C@@H]1O)OP(=O)(O)OP(=O)(O)O (stereo partly shown) [VK 44A, 2-chloroadenosine-5′-O-(1-boranotriphosphate)]",change in pancreatic flow rate,[1]; 0.015 μmol/L,+8±3%
same,change in pancreatic flow rate,[1]; 0.15 μmol/L,+16±5%
same,change in pancreatic flow rate,[1]; 1.5 μmol/L,+12±5%
same,insulin response compared with VK 38A,[2],comparable to that of VK 38A
CSc1nc(N)c2ncn([C@@H]3O[C@H](COP(=O)(O)OP(=O)(O)OP(=O)(O)O)[C@@H](O)[C@H]3O)c2n1 [2-methylthio-ATP],glycemia,dog; [5],slightly decreased glycemia
same,insulin release,dog; [5],stimulated insulin release
"BP(=O)(OC[C@H]1O[C@@H](n2cnc3c(N)nc(SC)nc32)[C@H](O)[C@@H]1O)OP(=O)(O)OP(=O)(O)O (stereo partly shown) [VK 38A, 2-methylthioadenosine-5′-O-(1-boranotriphosphate)]",AUC (VK38A-treated): area under the curve of plasma glucose concentrations,[3],158 and 201 and 134 and 176
same,change in pancreatic flow rate,[1]; 0.5 μmol/L,−6±3%
same,change in pancreatic flow rate,[1]; 1.5 μmol/L,−10±3%
same,change in pancreatic flow rate,[1]; 5.0 μmol/L,−8±6%
same,vascular effects (pancreatic flow rate),[1]; till 150 nmol/L,no significant effect
same,maximal effect on insulin secretion (AUC for 30 min in % per min),[2],approximately 900%
same,transient monophasic insulin response,"[2]; 1.5 nmol/L, value at time 45 min taken as 100%",230%
same,concentration range of immediate and concentration-dependent insulin response,[2]; 30 min infusion,0.0015 to 5.0 µmol/L
same,Insulin response,rat isolated pancreas; glucose 2.8 mmol/L,0.97 ± 0.03 ng/min
same,Insulin response,rat isolated pancreas; glucose 5.0 mmol/L,2.68 ± 0.52 ng/min
same,Insulin response,rat isolated pancreas; glucose 8.3 mmol/L,33.12 ± 1.75 ng/min
CCCCCCSc1nc(N)c2ncn([C@H]3O[C@@H](COP(O)(=S)OP(=O)(O)OP(=O)(O)O)[C@H](O)[C@@H]3O)c2n1 (stereo partly drawn) [2-hexylthio-ATP-α-S],enhancement of potency relative to ATP,[4]; insulin secretion,100 fold
same,increase in glucose-induced insulin secretion,[4]; nM concentration range,up to 500%
"BP(=O)(OC[C@H]1O[C@@H](n2cnc3c(N)nc(SC)nc32)[C@H](O)[C@@H]1O)OP(=O)(O)OP(=O)(O)O (stereo partly shown) [VK 38B, 2-methylthioadenosine-5′-O-(1-boranotriphosphate)]",transient reduction in pancreatic flow rate (increase in vascular resistance),[1]; from the concentration of 15 nmol/L,−27±5%
same,insulin response compared with VK 38A,[2],less potent than that induced by isomer A
"Nc1ncnc2c1ncn2[C@@H]1O[C@H](COP(=O)(O)OP(O)(O)=S)[C@@H](O)[C@H]1O [ADP-β-S, Adenosine 5′-O-(2-thio)diphosphate]",Insulin response,fed rats,sustained insulin response
same,glycemia,fed rats,reduction of glycemia
same,glycemia,dog; [6],reducing glycemia
same,insulinemia,dog; [6],transiently increasing insulinemia
